Reference: PMC4154495 (Molecular cancer therapeutics, 2014)

Molecular target: T1, ETV1 (ETS variant 1) (Homo sapiens, UniProt P50549)
T1 sequence (P50549 1-477): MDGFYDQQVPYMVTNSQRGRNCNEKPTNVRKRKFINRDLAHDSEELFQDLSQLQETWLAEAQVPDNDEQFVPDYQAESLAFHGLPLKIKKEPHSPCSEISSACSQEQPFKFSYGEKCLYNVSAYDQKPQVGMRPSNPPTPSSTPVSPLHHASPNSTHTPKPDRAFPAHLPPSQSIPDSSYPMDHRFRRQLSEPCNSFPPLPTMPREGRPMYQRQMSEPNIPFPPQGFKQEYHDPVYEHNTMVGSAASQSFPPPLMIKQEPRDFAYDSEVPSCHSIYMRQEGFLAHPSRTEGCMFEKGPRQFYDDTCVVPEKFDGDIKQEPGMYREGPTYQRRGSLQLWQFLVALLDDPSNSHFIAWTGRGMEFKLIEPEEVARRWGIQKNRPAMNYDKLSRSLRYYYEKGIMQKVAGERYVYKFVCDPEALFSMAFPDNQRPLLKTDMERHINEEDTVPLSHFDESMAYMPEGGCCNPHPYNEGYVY
Experiment: SPR
Type: binding

`COc1ccc(Nc2nc(N)nc(CN3CCCCC3)n2)cc1` [compound 1, BRD32048] was tested, and the Kd was 17.1 µM.
